Where “and” joins values, the source holds several entries; their conditions need not be identical. Equal values may be shown once.
Experiments:
[1] = target: T1, CB1 (rCB1) (Rattus norvegicus, UniProt P20272); experiment: Single-point radioligand displacement screen; assay type: binding; settings: 10 µM, 1 µM or 300 nM by cell colour (not visible)
[2] = target: T2, hCB1 (Homo sapiens, UniProt P21554); experiment: Tango β-arrestin-2 recruitment, HTLA cells, CB1R; assay type: cell-based; parameters: expressed in transfected cells; host or cells: HTLA cells (gift of R. Axel), transient transfection
T2 sequence (P21554 whole entry): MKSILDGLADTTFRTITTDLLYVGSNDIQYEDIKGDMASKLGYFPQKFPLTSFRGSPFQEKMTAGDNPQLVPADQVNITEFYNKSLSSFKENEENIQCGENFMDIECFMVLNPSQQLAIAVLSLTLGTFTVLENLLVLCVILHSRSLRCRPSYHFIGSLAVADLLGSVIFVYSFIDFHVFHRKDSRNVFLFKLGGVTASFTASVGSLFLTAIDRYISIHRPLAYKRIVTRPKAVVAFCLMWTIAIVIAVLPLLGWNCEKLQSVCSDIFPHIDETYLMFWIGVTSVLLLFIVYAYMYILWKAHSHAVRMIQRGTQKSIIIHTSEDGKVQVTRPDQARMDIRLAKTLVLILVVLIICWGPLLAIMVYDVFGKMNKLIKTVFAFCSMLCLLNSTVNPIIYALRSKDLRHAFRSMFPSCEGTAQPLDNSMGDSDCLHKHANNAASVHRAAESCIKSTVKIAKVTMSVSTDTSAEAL

[3] = target: hCB2 (Homo sapiens, UniProt P34972); experiment: TRUPATH BRET2 GoA dissociation, HEK293T; assay type: cell-based; parameters: expressed in transfected cells; host or cells: HEK293T cells (ATCC: CRL-3216), transient co-transfection; settings: Log[drug], replicate columns
hCB2, sequence (P34972 whole entry): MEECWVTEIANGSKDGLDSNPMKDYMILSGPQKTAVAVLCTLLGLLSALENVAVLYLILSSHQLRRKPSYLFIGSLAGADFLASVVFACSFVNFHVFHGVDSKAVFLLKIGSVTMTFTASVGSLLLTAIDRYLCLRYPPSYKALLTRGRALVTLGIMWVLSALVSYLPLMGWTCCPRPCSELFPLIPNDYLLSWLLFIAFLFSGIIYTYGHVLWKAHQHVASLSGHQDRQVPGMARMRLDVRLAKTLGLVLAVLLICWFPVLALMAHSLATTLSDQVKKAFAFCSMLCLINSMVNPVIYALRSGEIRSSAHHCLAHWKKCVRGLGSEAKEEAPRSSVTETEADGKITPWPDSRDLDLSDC

[4] = target: T1, CB1 (rCB1); experiment: Radioligand competition binding, [3H]-CP-55,940, rat brain membranes
[5] = target: T2, hCB1; experiment: bioSensAll ebBRET signaling profiling, hCB1; assay type: cell-based; parameters: host or cells: HEK293SL cells, transient PEI transfection; settings: Gi1 biosensor

T1 sequence (P20272 whole entry): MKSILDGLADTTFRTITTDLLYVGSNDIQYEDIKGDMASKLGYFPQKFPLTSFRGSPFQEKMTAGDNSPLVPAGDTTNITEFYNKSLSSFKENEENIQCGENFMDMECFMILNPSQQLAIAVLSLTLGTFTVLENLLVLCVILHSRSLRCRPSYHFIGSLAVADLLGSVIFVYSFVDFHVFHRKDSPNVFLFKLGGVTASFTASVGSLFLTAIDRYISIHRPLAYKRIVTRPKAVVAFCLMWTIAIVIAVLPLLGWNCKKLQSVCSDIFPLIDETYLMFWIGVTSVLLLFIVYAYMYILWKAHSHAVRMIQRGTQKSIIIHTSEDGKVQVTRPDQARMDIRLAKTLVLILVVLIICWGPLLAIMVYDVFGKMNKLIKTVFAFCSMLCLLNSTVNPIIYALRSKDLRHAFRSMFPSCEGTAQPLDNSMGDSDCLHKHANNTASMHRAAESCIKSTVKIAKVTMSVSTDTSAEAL

## COC(=O)[C@@H]1[C@@H]2CCC[C@@H]2CN1C(=O)c1cc(C)n(-c2cccc(Cl)c2)n1 (racemic) [‘10010]
[1]
  % 1H-CP-55,940 displacement (mean) from single point screen: 33.86%
[2]; Log[drug], M = -4.52
  response, replicate values of concentration-response curve (FigS7f): 24.852 and -9.474 and 31.57 and 49.261 and 34.9163 and 58.51 and 43.3772 and 13.5605 and 34.2635 and 143.166 and 149.946 and 121.258
[2]; Log[drug], M = -5
  response, replicate values of concentration-response curve (FigS7f): -6.393 and 4.812 and 50.5074 and 20.7309 and 18.1964 and 30.378 and 30.3734 and 43.3772 and 17.784 and 37.7997 and 110.741 and 29.9442
[2]; Log[drug], M = -5, individual replicates
  response at Log[drug], M -5 (FigS4e): 7.472 and 8.685 and 7.884 and 5.743 and 2.852 and 6.706 and 6.083 and 7.677 and 9.73 and 9.693 and 11.3624 and 13.6983
[2]; Log[drug], M = -5.52
  response, replicate values of concentration-response curve (FigS7f): -20.324 and 14.103 and 31.5067 and 7.169 and 19.8684 and 6.1872 and -9.345 and -6.435 and -28.1989 and 72.0832 and 46.8763 and 64.173
[2]; Log[drug], M = -5.52, individual replicates
  response at Log[drug], M -5.52 (FigS4e): 17.6293 and 13.3704 and 15.7552 and 17.3388 and 7.111 and 7.22 and 6.777 and 6.548 and 14.8053 and 14.1767 and 12.0847 and 15.6871
[2]; Log[drug], M = -6
  response, replicate values of concentration-response curve (FigS7f): -1.057 and 19.693 and 21.3155 and 18.7272 and -21.0026 and 10.5662 and 17.0767 and 0.7084 and 10.105 and 46.129 and 8.583 and -11.9397
[2]; Log[drug], M = -6, individual replicates
  response at Log[drug], M -6 (FigS4e): 17.4137 and 13.2205 and 12.7098 and 18.5288 and 2.8 and 2.042 and 0.7471 and 2.0116 and 5.809 and 8.098 and 10.8652 and 9.299
[2]; Log[drug], M = -6.52
  response, replicate values of concentration-response curve (FigS7f): 16.7142 and -12.7567 and -9.207 and 42.4801 and 2.591 and -9.299 and -1.706 and 6.518 and 3.588 and 25.7157 and 29.853 and 20.7035
[2]; Log[drug], M = -6.52, individual replicates
  response at Log[drug], M -6.52 (FigS4e): 5.804 and 6.685 and 5.518 and 6.338 and -2.975 and -1.665 and -2.183 and -3.091 and 1.981 and 0.8276 and 5.1991 and 1.175
[2]; Log[drug], M = -7
  response, replicate values of concentration-response curve (FigS7f): 11.1876 and 2.403 and 33.2939 and -14.3677 and -5.119 and -14.8322 and -4.192 and -26.8955 and -17.9232 and -30.0748 and 5.375 and 20.4665
[2]; Log[drug], M = -7, individual replicates
  response at Log[drug], M -7 (FigS4e): 8.629 and 6.746 and 5.86 and 10.4703 and -2.0219 and -2.877 and 1.224 and -2.078 and 2.76 and 0.06777 and 1.494 and 1.231
[2]; Log[drug], M = -7.52
  response, replicate values of concentration-response curve (FigS7f): -4.594 and -7.623 and -10.5004 and 2.14 and -6.485 and 4.329 and -8.365 and -9.244 and -13.1441 and 57.083 and -23.4769 and -26.8306
[2]; Log[drug], M = -7.52, individual replicates
  response at Log[drug], M -7.52 (FigS4e): 7.402 and 10.1376 and 9.341 and 5.865 and -1.189 and -1.594 and -1.932 and -1.59 and 2.357 and 3.37 and 0.3773 and 1.259
[2]; Log[drug], M = -8, individual replicates
  response at Log[drug], M -8 (FigS4e): 5.148 and 6.741 and 11.0794 and 7.462 and -3.208 and -1.519 and -1.219 and -1.073 and 3.632 and 3.698 and 2.085 and 1.362
[2]; Log[drug], M = -8.52, individual replicates
  response at Log[drug], M -8.52 (FigS4e): 6.619 and 9.146 and 5.084 and 9.668 and -0.1198 and -1.382 and -2.75 and -0.9228 and 3.28 and -0.4583 and 7.234 and 5.093
[2]; Log[drug], M = -9, individual replicates
  response at Log[drug], M -9 (FigS4e): 7.852 and 7.417 and 8.056 and 9.08 and -2.328 and -1.287 and -1.685 and -1.328 and 7.254 and 4.304 and 5.943 and 1.774
[2]; Log[drug], M = -9.52
  response, replicate values of concentration-response curve (FigS7f): 6.738 and -6.178 and -20.755 and -11.5014
[2]; Log[drug], M = -9.52, individual replicates
  response at Log[drug], M -9.52 (FigS4e): 9.847 and 11.0284 and 11.6628 and 8.737 and -1.263 and 0.9084 and -0.5418 and -0.1936 and 4.704 and 2.799 and 4.5399 and 1.57
[2]; Log[drug], M = -10
  response, replicate values of concentration-response curve (FigS7f): 28.4645 and -14.1129 and -6.736 and 44.2981 and 21.9252 and 39.0432 and 53.2891 and 13.6717 and 41.3867 and -34.1393 and -0.001553 and -21.0711
[2]; Log[drug], M = -10, individual replicates
  response at Log[drug], M -10 (FigS4e): 10.788 and 9.1102 and 5.959 and 9.12 and -1.758 and -1.431 and -1.611 and -0.8081 and 3.28 and 4.704 and 4.745 and 3.311
[2]; Log[drug], M = -10.52, individual replicates
  response at Log[drug], M -10.52 (FigS4e): 6.358 and 9.064 and 8.9107 and 9.172 and 1.265 and 0.1792 and -0.6688 and 1.04 and 3.157 and 2.819 and 2.153 and 4.1507
[2]; Log[drug], M = -11, individual replicates
  response at Log[drug], M -11 (FigS4e): 2.256 and 6.798 and 9.796 and 5.744 and -1.353 and -1.763 and 1.556 and -0.804 and 2.6758 and 2.932 and 3.905 and 1.57
[2]; Log[drug], M = -11.52, individual replicates
  response at Log[drug], M -11.52 (FigS4e): 2.281 and 3.903 and 3.253 and 1.1509 and 1.314 and 0.9699 and 1.212 and 0.552 and 3.905 and 2.9421 and 2.881 and 4.816
[2]; Log[drug], M = -12, individual replicates
  response at Log[drug], M -12 (FigS4e): 1.069 and -1.289 and -0.4859 and 0.7059 and -0.1854 and 0.7118 and -1.111 and 0.5848 and 1.078 and -0.868 and 0.4635 and -0.6734
[2]; hCB1, read-out: Tango ß-arrestin recruitment EC50
  EC50: > 10 µM
[3]; M = -5
  functional response, concentration-response point (FigS7e, normalized): 13.7314 and 19.7654 and 16.2539 and 16.3582 and 15.5266 and 14.7181 and 16.9744 and 17.1956 and 17.3437 and 20.7447 and 17.5139 and 16.5546
[3]; M = -5.52
  functional response, concentration-response point (FigS7e, normalized): 20.9042 and 19.2165 and 18.0732 and 18.0369 and 19.6455 and 19.8563 and 17.8521 and 14.5073 and 16.3411 and 19.903 and 17.2602 and 16.9755
[3]; M = -6
  functional response, concentration-response point (FigS7e, normalized): 10.7507 and 14.9427 and 13.7359 and 16.0951 and 12.4583 and 11.3422 and 12.1059 and 9.687 and 11.8107 and 11.4703 and 9.703 and 11.3929
[3]; M = -6.52
  functional response, concentration-response point (FigS7e, normalized): 4.563 and 6.7947 and 8.079 and 4.985 and 4.497 and 4.0725 and 5.772 and 5.524 and 4.879 and 5.1763 and 4.984 and 5.043
[3]; M = -7
  functional response, concentration-response point (FigS7e, normalized): 0.9969 and 1.487 and 2.14 and 1.042 and 1.585 and 1.996 and 1.046 and 1.153 and 1.5 and 1.42 and 1.036 and 1.049
[3]; M = -7.52
  functional response, concentration-response point (FigS7e, normalized): 0.4797 and -0.06465 and 1.02 and 1.242 and 0.9491 and 0.7245 and 0.6969 and 0.2961 and 0.374 and 0.3276 and 0.4451 and 0.1667
[3]; M = -8
  functional response, concentration-response point (FigS7e, normalized): 0.02154 and 0.144 and -0.228 and -0.5682 and 0.189 and -0.07359 and -0.0114 and 0.652 and 0.7051 and 0.1667 and -0.0685 and 0.08312
[3]; M = -8.52
  functional response, concentration-response point (FigS7e, normalized): -0.1696 and -0.1994 and 0.2365 and -0.2192 and 0.07356 and 0.6319 and 1.0091 and 0.1075 and 0.1334 and 0.5456 and 0.1807 and -0.04223
[3]; M = -12
  functional response, concentration-response point (FigS7e, normalized): -0.3529 and 0.3603 and 0.09782 and -0.1053
[4]; rCB1
  pKi [95% CI]: 5.9 [5.8 – 6.0]
[4]; read-out: Ki [95% CI], rCB1, [3H]-CP-55,940
  Ki: 1.2 µM
[5]; Log [Compound] (M) -4.22186
  Gi1 hCB1 response: 123.556
[5]; Log [Compound] (M) -4.63927
  Gi1 hCB1 response: 104.286
[5]; Log [Compound] (M) -5.05788
  Gi1 hCB1 response: 90.0738
[5]; Log [Compound] (M) -5.47381
  Gi1 hCB1 response: 84.2546
[5]; Log [Compound] (M) -5.89285
  Gi1 hCB1 response: 64.3799
[5]; Log [Compound] (M) -6.31878
  Gi1 hCB1 response: 42.6475
[5]; Log [Compound] (M) -6.72585
  Gi1 hCB1 response: 30.3601
[5]; Log [Compound] (M) -7.14267
  Gi1 hCB1 response: 11.5597
[5]; Log [Compound] (M) -7.55284
  Gi1 hCB1 response: 0.9285
[5]; Log [Compound] (M) -8
  Gi1 hCB1 response: 10.9106
[5]; Log [Compound] (M) -8.22186
  Gi1 hCB1 response: -8.695
[5]; Log [Compound] (M) -8.39794
  Gi1 hCB1 response: 0.6152
[5]; Log [Compound] (M) -8.68787
  Gi1 hCB1 response: -2.362
[5]; Log [Compound] (M) -9.61989
  Gi1 hCB1 response: -10.5755
[5]; Log [Compound] (M) -10.0969
  Gi1 hCB1 response: -9.255
[5]; Log [Compound] (M) -10.5529
  Gi1 hCB1 response: -7.5988
[5]; Log [Compound] (M) -11.0177
  Gi1 hCB1 response: -15.9247
[5]; Log [Compound] (M) -11.4949
  Gi1 hCB1 response: -7.532
[5]; Log [Compound] (M) -11.9208
  Gi1 hCB1 response: -15.2309
[5]; Log [Compound] (M) -12.3979
  Gi1 hCB1 response: -21.4305

From publication PMC11882969 (Nature Communications, 2025)
